From US11078198B2 (BRISTOL-MYERS SQUIBB COMPANY, priority 2017, dated 2021) come the findings set out here.

Structures are written as SMILES.

The target of the assay is T1, human FXR (Homo sapiens, UniProt Q96RI1).
T1 construct: expressed in transfected cells; host or cells: HEK293 cells stably carrying a 5xGal4-response-element firefly luciferase reporter, transiently transfected with pcDNA3.1-Gal4-FXR
T1 sequence (Q96RI1 262-486 limits assumed): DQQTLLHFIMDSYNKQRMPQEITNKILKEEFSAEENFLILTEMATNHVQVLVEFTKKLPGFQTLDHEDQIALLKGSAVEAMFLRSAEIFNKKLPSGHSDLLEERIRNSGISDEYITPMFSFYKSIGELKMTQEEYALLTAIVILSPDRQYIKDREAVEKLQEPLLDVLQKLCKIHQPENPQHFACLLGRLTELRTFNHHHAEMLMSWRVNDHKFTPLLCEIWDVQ
Kind of assay: transient human FXR/Gal4-luciferase reporter assay. The conditions noted are these: Gal4-hFXR transfected HEK293 reporter cells; relative to 8 μM GW-4064. In kind it is cell-based. How it is done: A Gal4-hFXR fusion construct reporter system was used as the primary assay to characterize compound activity. A construct including 5 copies of the Gal4 promoter response element upstream of a firefly luciferase reporter cDNA was stably expressed in HEK293 cells. This reporter cell line was maintained in Dulbecco's Modified Eagle's medium (DMEM; Gibco) supplemented with 1% penicillin-streptomycin (P/S) solution, 500 μg/mL Zeocin and 10% charcoal/dextran-treated fetal bovine serum (cs-FBS) at 37° C. in a humidified 5% CO2 atmosphere. Another plasmid was constructed in which the human cytomegalovirus promoter in the pcDNA3.1 vector directs the expression of the cDNA encoding a fusion protein comprised of the DNA binding domain from the Gal4 transcription factor fused to the ligand binding domain from human FXR.
The day prior to transfection, the reporter cells in culture are detached from the plate with trypsin and plated into a T75 flask at a sufficient density to achieve approximately 90% confluence the next morning. The transfection reagents are prepared by separately diluting 25 μg of the pcDNA3.1-Gal4-FXR plasmid into 1.87 mL of Opti-MEM (Thermo-Fisher), and 40 μL of Lipofectamine 2000 (Thermo-Fisher) into 1.87 mL of Opti-MEM, and then adding the diluted DNA solution into the diluted Lipofectamine 2000 solution and incubating at room temperature for 15-20 minutes. The mixture is further diluted with 10 mL of a solution comprised of DMEM, 10% cs-FBS, and 1% P/S immediately prior to transferring to the cells. The maintenance culture media is aspirated from the cells and the final transfection mixture is added before the cells are incubated overnight at 37° C. in a humidified 5% CO2 atmosphere. This protocol can be scaled up, and the transiently transfected cells can be cryopreserved in an assay-ready format.
For compound testing, 100 nL of the compounds (serial dilutions in DMSO) are dispensed with an Echo acoustic dispenser (Labcyte) into the wells of a Corning/Costar clear bottom 384-well white plate. The transfected cells are harvested, counted, and diluted such that 10-25,000 cells in 25 μL are plated into each well of the 384-well compound assay plate. The compound-treated cells are incubated overnight at 37° C. in a humidified 5% CO2 atmosphere.
(Reporter assays use an easily measured gene product as a stand-in for the process of interest.)

`O=C(O)c1cc(C(F)(F)F)c2cc(N3CCC4(C=C(c5c(-c6c(F)cncc6F)noc5C5CC5)C4)CC3)ccc2n1` [Example 93, 6-(2-(5-Cyclopropyl-3-(3,5-difluoropyridin-4-yl)isoxazol-4-yl)-7-azaspiro[3.5]non-1-en-7-yl)-4-(trifluoromethyl)quinoline-2-carboxylic acid]: the EC50 (in general, the concentration needed to bring the measured effect to its halfway point) is 511 nM.
The value for `Cn1nc(C#N)c2ccc(N3CCC4(C=C(c5c(-c6ccccc6OC(F)(F)F)noc5C5CC5)C4)CC3)cc21` [Example 175, 6-(2-(5-Cyclopropyl-3-(2-(trifluoromethoxy)phenyl)isoxazol-4-yl)-7-azaspiro[3.5]non-1-en-7-yl)-1-methyl-1H-indazole-3-carbonitrile] was 3240 nM; that for `O=C(O)c1cc(F)c2nc(N3CCC4(C=C(c5c(-c6cnccc6C(F)(F)F)noc5C5CC5)C4)CC3)sc2c1` [Example 139, 2-(2-(5-Cyclopropyl-3-(4-(trifluoromethyl)pyridin-3-yl)isoxazol-4-yl)-7-azaspiro[3.5]non-1-en-7-yl)-4-fluorobenzo[d]thiazole-6-carboxylic acid] was 482 nM.
As for `COc1cc(C(=O)O)cc2sc(N3CCC4(C=C(c5c(-c6ccccc6C(F)(F)F)noc5C5CC5)C4)CC3)nc12` [Example 71, 2-(2-(5-Cyclopropyl-3-(2-(trifluoromethyl)phenyl)isoxazol-4-yl)-7-azaspiro[3.5]non-1-en-7-yl)-4-methoxybenzo[d]thiazole-6-carboxylic acid], a half-maximal effect (EC50) was put at 9.4 nM.
The value for `O=C(O)c1ccc(N2CCC3(C=C(c4c(-c5c(Cl)cccc5Cl)noc4C4CC4)C3)CC2)nn1` [Example 5, 6-(2-(5-Cyclopropyl-3-(2,6-dichlorophenyl)isoxazol-4-yl)-7-azaspiro[3.5]non-1-en-7-yl)pyridazine-3-carboxylic acid] was 313 nM; that for `O=C(O)c1ccc(N2C3CCC2CC2(CC(c4c(-c5c(Cl)cccc5Cl)noc4C4CC4)C2)C3)nc1` (centres unmarked) [Example 16, 6-(3′-(5-Cyclopropyl-3-(2,6-dichlorophenyl)isoxazol-4-yl)-8-azaspiro[bicyclo[3.2.1]octane-3,1′-cyclobutan]-8-yl)nicotinic acid] was 646 nM.
The value for `O=C(O)c1cc(OCCO)c2cc(N3CCC4(C=C(c5c(-c6c(Cl)cncc6Cl)noc5C5CC5)C4)CC3)ccc2n1` [Example 142, 6-(2-(5-Cyclopropyl-3-(3,5-dichloropyridin-4-yl)isoxazol-4-yl)-7-azaspiro[3.5]non-1-en-7-yl)-4-(2-hydroxyethoxy)quinoline-2-carboxylic acid] was 147 nM.
The value for `Cc1c(N2CCC3(C=C(c4c(-c5c(Cl)cccc5Cl)noc4C4CC4)C3)CC2)ccc2cc(C(=O)O)cnc12` [Example 132, 7-(2-(5-Cyclopropyl-3-(2,6-dichlorophenyl)isoxazol-4-yl)-7-azaspiro[3.5]non-1-en-7-yl)-8-methylquinoline-3-carboxylic acid] was 958 nM.
In turn, `O=C(O)c1ccc2cc(OC3CCC4(C=C(c5c(-c6c(Cl)cccc6Cl)noc5C5CC5)C4)CC3)ccc2n1` (centres unmarked) [Example 210, 6-((2-(5-Cyclopropyl-3-(2,6-dichlorophenyl)isoxazol-4-yl)spiro[3.5]non-1-en-7-yl)oxy)quinoline-2-carboxylic acid] returned an EC50 of 485 nM. Against the preceding molecule, the EC50 is about 2-fold lower.
Turning to `O=C(O)CNC(=O)c1ccc(N2CCC3(C=C(c4c(-c5ccccc5C(F)(F)F)noc4C4CC4)C3)CC2)nc1` [Example 31, (6-(2-(5-Cyclopropyl-3-(2-(trifluoromethyl)phenyl)isoxazol-4-yl)-7-azaspiro[3.5]non-1-en-7-yl)nicotinoyl)glycine], a half-maximal response (EC50) required 5300 nM.
Molecule `O=C(O)c1cnc(N2CCC3(C=C(c4c(-c5c(Cl)cccc5Cl)noc4C4CC4)C3)CC2)c(F)c1` [Example 28, 6-(2-(5-Cyclopropyl-3-(2,6-dichlorophenyl)isoxazol-4-yl)-7-azaspiro[3.5]non-1-en-7-yl)-5-fluoronicotinic acid] displayed an EC50 of 453 nM.
The value for `O=C(O)c1ccc2oc(N3CCC4(C=C(c5c(-c6c(Cl)cccc6Cl)noc5C5CC5)C4)CC3)nc2c1` [Example 26, 2-(2-(5-Cyclopropyl-3-(2,6-dichlorophenyl)isoxazol-4-yl)-7-azaspiro[3.5]non-1-en-7-yl)benzo[d]oxazole-5-carboxylic acid] was 157 nM; that for `CC(C)Oc1cc(C(=O)O)nc2ccc(N3CCC4(C=C(c5c(-c6ccccc6OC(F)(F)F)noc5C5CC5)C4)CC3)cc12` [Example 106, 6-(2-(5-Cyclopropyl-3-(2-(trifluoromethoxy)phenyl)isoxazol-4-yl)-7-azaspiro[3.5]non-1-en-7-yl)-4-isopropoxyquinoline-2-carboxylic acid] was 21 nM; that for `O=C(O)c1ccc(N2CCC3(C=C(c4c(-c5c(Cl)cccc5Cl)noc4C4CC4)C3)CC2)cc1` [Example 10, 4-(2-(5-Cyclopropyl-3-(2,6-dichlorophenyl)isoxazol-4-yl)-7-azaspiro[3.5]non-1-en-7-yl)benzoic acid] was 135 nM.
For `O=C(O)c1cccc(N2CCC3(C=C(c4c(-c5c(Cl)cccc5Cl)noc4C4CC4)C3)CC2)c1` [Example 9, 3-(2-(5-Cyclopropyl-3-(2,6-dichlorophenyl)isoxazol-4-yl)-7-azaspiro[3.5]non-1-en-7-yl)benzoic acid] the value was 4200 nM.
The value for `O=C(O)c1ccc(OC2CCC3(CC2)CC(O)(c2c(-c4c(Cl)cccc4Cl)noc2C2CC2)C3)cc1` (centres unmarked) [Example 208, 4-((2-(5-Cyclopropyl-3-(2,6-dichlorophenyl)isoxazol-4-yl)-2-hydroxyspiro[3.5]nonan-7-yl)oxy)benzoic acid] was 6660 nM.
Consider `COc1cc(C(=O)NS(C)(=O)=O)nc2ccc(N3CCC4(C=C(c5c(-c6ccccc6C(F)(F)F)noc5C5CC5)C4)CC3)cc12` [Example 196, 6-(2-(5-Cyclopropyl-3-(2-(trifluoromethyl)phenyl)isoxazol-4-yl)-7-azaspiro[3.5]non-1-en-7-yl)-4-methoxy-N-(methylsulfonyl)quinoline-2-carboxamide], for which it took 155 nM to reach a half-maximal effect (EC50).
For the molecule `Cc1cccc(Cl)c1-c1noc(C2CC2)c1C1=CC2(CCN(c3ccc4nc(C(=O)O)ccc4c3)CC2)C1` [Example 157, 6-(2-(3-(2-Chloro-6-methylphenyl)-5-cyclopropylisoxazol-4-yl)-7-azaspiro[3.5]non-1-en-7-yl)quinoline-2-carboxylic acid], the EC50 stood at 223 nM.
The value for `O=C(O)c1ccc(N2CC3(C=C(c4c(-c5ccccc5C(F)(F)F)noc4C4CC4)C3)C2)nc1` [Example 35, 6-(6-(5-cyclopropyl-3-(2-(trifluoromethyl)phenyl)isoxazol-4-yl)-2-azaspiro[3.3]hept-5-en-2-yl)nicotinic acid] was 4300 nM; that for `Cn1cc(C(=O)O)c2ccc(N3CCC4(CC3)CC(c3c(C(F)F)cnn3-c3ccccc3C(F)(F)F)C4)cc21` [Example 222, 6-(2-(4-(Difluoromethyl)-1-(2-(trifluoromethyl)phenyl)-1H-pyrazol-5-yl)-7-azaspiro[3. 5]nonan-7-yl)-1-methyl-1H-indole-3-carboxylic acid] was 275 nM; that for `Cn1nc(C(=O)O)c2ccc(N3CCC4(C=C(c5c(-c6ccccc6C(F)(F)F)noc5C5CC5)C4)CC3)cc21` [Example 164, 6-(2-(5-Cyclopropyl-3-(2-(trifluoromethyl)phenyl)isoxazol-4-yl)-7-azaspiro[3.5]non-1-en-7-yl)-1-methyl-1H-indazole-3-carboxylic acid] was 392 nM.
The value for `Cc1cc(C(=O)O)cc2sc(N3CCC4(C=C(c5c(C(F)F)cnn5-c5ccccc5OC(F)(F)F)C4)CC3)nc12` [Example 221, 2-(2-(4-(Difluoromethyl)-1-(2-(trifluoromethoxy)phenyl)-1H-pyrazol-5-yl)-7-azaspiro[3.5]non-1-en-7-yl)-4-methylbenzo[d]thiazole-6-carboxylic acid] was 182 nM; that for `O=C(O)c1cc(OC(F)F)c2cc(N3CCC4(C=C(c5c(-c6cccnc6C(F)(F)F)noc5C5CC5)C4)CC3)ccc2n1` [Example 77, 6-(2-(5-Cyclopropyl-3-(2-(trifluoromethyl)pyridin-3-yl)isoxazol-4-yl)-7-azaspiro[3.5]non-1-en-7-yl)-4-(difluoromethoxy)quinoline-2-carboxylic acid] was 68 nM.
